The results in this text go back to patent US20230012368A1 (Hoffmann-La Roche Inc., priority 2018, published 2023).

This test has as its system Acinetobacter baumannii ATCC 17978. Put plainly: Antimicrobial susceptibility testing: 90% growth inhibitory concentration (IC90) determination. The conditions noted are these: 90% growth inhibitory concentration, Acinetobacter baumannii ATCC17978, Iso-Sensitest broth, OD 600 nm over 16h, read-out: ATCC17978 IC90. It is filed as cell-based. The essentials:
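Growth of the Acinetobacter baumannii strain was followed by optical density at 600 nm every 20 minutes for 16h at 35±2° C. Inoculum was ~5×10^(5) CFU/ml in Iso-Sensitest medium, with twofold compound dilutions (e.g. 50 to 0.097 μM final). The 90% inhibitory concentration was derived in log-phase growth.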

Setting [1] is: Acinetobacter baumannii, ATCC17978, 16 h.

Structures can show the parent of a compound that is named as a salt. Where two headings read alike, the source gives them in different places.

For the compound `Cc1cc(Nc2nccn3c(-c4ccc(OC(F)F)cc4)cnc23)ccc1C(=O)NCCN1C[C@@H](C)O[C@@H](C)C1` [Example 278, 4-[[3-[4-(difluoromethoxy)phenyl]im-idazo[1,2-a]pyrazin-8-yl]amino]-2-methyl-N-[2-[rac-(2R,6S)-2,6-dimethylmorpholin-4-yl]ethyl]benzamide], under setting [1], the IC90 is 1400 nM.
With `CCc1cc(Nc2nccn3c(-c4ccc(OC)c(F)c4F)cnc23)ccc1C(=O)N[C@@H](C)CN` [Example 102, (S)-N-(1-aminopropan-2-yl)-4-((3-(2,3-difluoro-4-methoxyphenyl)imidazo [1,2-a]pyrazin-8-yl)amino)-2-ethylbenzamide dihydrochloride], under setting [1], the IC90 is 320 nM.
For `CCc1cc(Nc2nccn3c(-c4ccc(OC)c(F)c4F)cnc23)ccc1C(=O)NCCNC(=O)[C@@H](N)CCCCN` [Example 398, N-[2-[[(2S)-2,6-diaminohexanoyl]amino]eth-yl]-4-[[3-(2,3-difluoro-4-methoxy-phenyl)imidazo[1,2-a]pyrazin-8-yl]amino]-2-ethyl-benzamide; formic acid], the IC90 under setting [1] stood at 410 nM.
On to `Cc1cc(Nc2nccn3c(-c4ccc(OC(F)F)cc4)cnc23)ccc1C(=O)NC(CO)CN1CCOCC1` (stereo not drawn) [Example 251, 4-[[3-[4-(difluoromethoxy)phenyl]im-idazo[1,2-a]pyrazin-8-yl]amino]-N-(1-hydroxy-3-morpholin-4-ylpropan-2-yl)-2-methylbenzamide], for which the IC90 under setting [1] came out at 2700 nM.
For `CNC(=O)c1ccc(Nc2nccn3c(-c4ccc(Cl)cc4)cnc23)cc1C` [Example 185, 4-[[3-(4-chlorophenyl)imidazo[1,2-a]pyrazin-8-yl]amino]-N,2-dimethylbenzamide], the IC90 under setting [1] amounted to 230 nM.
Turning to `CNC(=O)c1ccc(Nc2nccn3c(-c4ccc(OC(F)F)cc4)cnc23)cc1COCCO` [Example 168, 4-[[3-[4-(difluoromethoxy)phenyl]imidazo[1,2-a]pyrazin-8-yl]amino]-2-(2-hydroxyethoxymethyl)-N-methyl-benzamide], the IC90 under setting [1] was 2000 nM.
Consider `CCc1cc(Nc2nccn3c(-c4ccc(Oc5ccccn5)c(F)c4F)cnc23)ccc1C(=O)NCC(=O)N1CCN[C@H](CO)C1` [Example 474, 4-[[3-[2,3-difluoro-4-(2-pyridyloxy)phenyl]imidazo [1,2-a]pyrazin-8-yl]amino]-2-ethyl-N-[2-[(3S)-3-(hydroxymethyl)piperazin-1-yl]-2-oxo-ethyl]benzamide], for which the IC90 under setting [1] is 910 nM.
For the compound `COc1ccc(-c2cnc3c(Nc4ccc(C(=O)NCCCCCNC(=O)OC(C)(C)C)c(C)c4)nccn23)cc1` [Example 223, tert-butyl N-[5-[[4-[[3-(4-methoxyphenyl)imidazo[1,2-a]pyrazin-8-yl]amino]-2-methylbenzoyl]amino]pentyl] carbamate], the IC90 under setting [1] turned out to be 1100 nM.
Still for that read-out and setting: the result for `N#CCOc1ccc(-c2cnc3c(Nc4ccc(C(=O)NCCCCCCN)c(Cl)c4)nccn23)c(F)c1F` [Example 497, N-(6-aminohexyl)-2-chloro-4-((3-(4-(cyanomethoxy)-2,3-difluorophenyl)imidazo[1,2-a]pyrazin-8-yl)amino)benzamide] reads 25 nM; that for `COc1ccc(-c2cnc3c(Nc4ccc(C(=O)N[C@@H](C)CNC(=N)C(C)C)c(Cl)c4)nccn23)c(F)c1F` [Example 500, 2-chloro-4-[[3-(2,3-difluoro-4-methoxyphenyl)imidazo[1,2-a]pyrazin-8-yl]amino]-#N!- [(2#S!)-1-(2-methylpropanimidoylamino)propan-2-yl]benzamide], 310 nM; that for `C#CCOc1ccc(-c2cnc3c(Nc4ccc(C(=O)N[C@H](C)CN)c(CC)c4)nccn23)c(F)c1F` [Example 460, N-[(1R)-2-amino-1-methyl-ethyl]-4-[[3-(2,3-difluoro-4-prop-2-ynoxy-phenyl)imidazo[1,2-a]pyrazin-8-yl]amino]-2-ethyl-benzamide], 480 nM.
Turning to `CCc1cc(Nc2nccn3c(-c4ccc(OC)c(F)c4F)cnc23)ccc1C(=O)NC/C=C/CN` [Example 536, N-[(E)-4-aminobut-2-enyl]-4-[[3-(2,3-difluoro-4-methoxyphenyl)imidazo[1,2-a]pyrazin-8-yl]amino]-2-ethylbenzamide], the IC90 under setting [1] was 24 nM.
As for `CCc1cc(Nc2nccn3c(-c4ccc(OC)c(F)c4F)cnc23)ccc1C(=O)NCC(=O)NCCN(C)C` [Example 434, 4-[[3-(2,3-difluoro-4-methoxy-phenyl)imidazo[1,2-a]pyrazin-8-yl]amino]-N-[2-[2-(dimethylamino)ethylamino]-2-oxo-ethyl]-2-ethyl-benzamide; formic acid], the IC90 under setting [1] came to 250 nM.
For the compound `COc1ccc(-c2cnc3c(Nc4ccc(C(=O)N(C)CC(=O)N5CCC(CN(C)C)C5)c(C)c4)nccn23)cc1F` (stereo not drawn) [Example 9, N-[2-[3-[(dimethylamino)methyl]pyrrolidin-1-yl]-2-oxo-ethyl]-4-[[3-(3-fluoro-4-methoxy-phenyl)imidazo[1,2-a]pyrazin-8-yl]amino]-N,2-dimethyl-benzamide], the IC90 under setting [1] turned out to be 840 nM.
With `COc1ccc(-c2cnc3c(Nc4ccc(C(=O)N(C)CCCC(=O)N5CCNCC5)c(C)c4)nccn23)cc1F` [Example 4, 4-[[3-(3-fluoro-4-methoxy-phenyl)imidazo[1,2-a]pyrazin-8-yl]amino]-N,2-dimethyl-N-(4-oxo-4-piperazin-1-yl-butyl)benzamide], the IC90 was found to be 290 nM.
As to `CCc1cc(Nc2nccn3c(-c4ccc(OC)c(F)c4F)cnc23)ccc1C(=O)NCCCCC(=O)NC[C@H]1O[C@H](O[C@@H]2[C@@H](O)[C@H](O[C@H]3O[C@H](CN)[C@@H](O)[C@H](O)[C@H]3O)[C@@H](N)C[C@H]2NC(=O)[C@@H](O)CCN)[C@H](O)[C@@H](N)[C@@H]1O` [Example 454, trifluoroacetate], the IC90 was found to be 970 nM.
Consider `Cc1cc(Nc2nccn3c(-c4ccc(OCC#N)c(F)c4F)cnc23)ccc1C(=O)NCCNC(=O)[C@@H]1C[C@](C)(O)CN1` [Example 133, (2S,4S)-N-[2-[[4-[[3-[4-(cyanomethoxy)-2,3-difluoro-phenyl]imidazo[1,2-a]pyrazin-8-yl]amino]-2-methyl-benzoyl]amino]ethyl]-4-hydroxy-4-methyl-pyrrolidine-2-carboxamide formate], for which, under setting [1], the IC90 stood at 90 nM.
The same measure, in the same setting: the result for `COc1ccc(-c2cnc3c(Nc4ccc(C(=O)N(C)CCN5CCNCC5)c(C)c4)nccn23)c(F)c1F` [Example 61, 4-((3-(2,3-difluoro-4-methoxyphenyl)imidazo [1,2-a]pyrazin-8-yl)amino)-N,2-dimethyl-N-(2-(piperazin-1-yl)ethyl)benzamide] reads 190 nM.
In the case of `CCc1cc(Nc2nccn3c(-c4ccc(Oc5ccc(C(=O)NCCN)cn5)c(F)c4F)cnc23)ccc1C(=O)NC` [Example 490, N-(2-aminoethyl)-6-[4-[8-[3-ethyl-4-(methylcarbamoyl)anilino]imidazo[1,2-a]pyrazin-3-yl]-2,3-difluoro-phenoxy]pyridine-3-carboxamide; formic acid], the IC90 turned out to be 450 nM.
On to `CNC(=O)c1ccc(Nc2nccn3c(-c4ccc(OC(F)F)cc4)cnc23)cc1C1CC1` [Example 167, 2-cyclopropyl-4-[[3-[4-(difluoromethoxy)phenyl]imidazo[1,2-a]pyrazin-8-yl]amino]-N-methyl-benzamide], for which the IC90 under setting [1] was determined as 1100 nM.
As to `COc1ccc(-c2cnc3c(Nc4ccc(C(=O)NCC5CCNCC5)c(C)c4)nccn23)c(F)c1F` [Example 55, 4-[[3-(2,3-difluoro-4-methoxy-phenyl)imidazo[1,2-a]pyrazin-8-yl]amino]-2-methyl-N-(4-piperidylmethyl) benzamide], the IC90 under setting [1] amounted to 260 nM.
On the same count and under the same terms, the result for `COc1ccc(-c2cnc3c(Nc4ccc(C(=O)NCCCNC(=O)[C@@H]5C[C@@H](O)CN5)c(C)c4)nccn23)c(F)c1F` [Example 358, (2S,4R)-N-[3-[[4-[[3-(2,3-difluoro-4-methoxyphenyl)imidazo[1,2-a]pyrazin-8-yl]amino]-2-methylbenzoyl]amino]propyl]-4-hydroxypyrrolidine-2-carboxamide] reads 50 nM.
Consider `COc1ccc(-c2cnc3c(Nc4ccc(C(=O)NCCCCCCCN)c(C)c4)nccn23)c(F)c1F` [Example 516, N-(7-aminoheptyl)-4-((3-(2,3-difluoro-4-methoxyphenyl)imidazo[1,2-a]pyrazin-8-yl)amino)-2-methylbenzamide hydrochloride], for which the IC90 turned out to be 34 nM.
On to `CNCCN1CCc2cc(Nc3nccn4c(-c5ccc(OC)c(F)c5F)cnc34)ccc2C1=O` [Example 300, 6-[[3-(2,3-difluoro-4-methoxyphenyl)imidazo[1,2-a]pyrazin-8-yl]amino]-2-[2-(methylamino)ethyl]-3,4-dihydroisoquinolin-1-one;hydrochloride], for which the IC90 under setting [1] stood at 240 nM.
As for `CCc1cc(Nc2nccn3c(-c4ccc(OC)c(F)c4F)cnc23)ccc1C(=O)NCC(=O)NCCNC` [Example 428, 4-[[3-(2,3-difluoro-4-methoxy-phenyl)imidazo[1,2-a]pyrazin-8-yl]amino]-2-ethyl-N-[2-[2-(methylamino)ethylamino]-2-oxo-ethyl]benzamide; formic acid], the IC90 under setting [1] is 410 nM.
On the same count and under the same terms, the result for `CCc1cc(Nc2nccn3c(-c4ccc(OC)c(F)c4F)cnc23)ccc1C(=O)NCCCNC(=O)[C@H](CCCNC(=N)N)NC(=O)CC[C@H](N)C(=O)O` [Example 407, N5-((S)-1-((3-(4-((3-(2,3-difluoro-4-methoxyphenyl)imidazo[1,2-a]pyrazin-8-yl)amino)-2-ethylbenzamido)propyl)amino)-5-guanidino-1-oxopentan-2-yl)-L-glutamine trihydrochloride] reads 940 nM; that for `CCc1cc(Nc2nccn3c(-c4ccc(OCC#N)c(F)c4F)cnc23)ccc1C(=O)NCCNC(=O)CC(O)CN` (stereo not drawn) [Example 142, N-[2-[(4-amino-3-hydroxy-butanoyl)amino]ethyl]-4-[[3-[4-(cyanomethoxy)-2,3-difluoro-phenyl]imidazo[1,2-a]pyrazin-8-yl]amino]-2-ethyl-benzamide formate], 130 nM.
